# Legend:
# in vitro = settings: PAMPA
# [1] = Lipophilicity, logD of compound at pH 7.4 by chromatography; type: physicochemical; settings: buffer
# [2] = Cmax in Wistar Han rat at 1 mg/kg, po at 7 to 24 hrs by LC-MS/MS analysis; type: ADME, organism-based; settings: in vivo, time 7-24 hrs
# [3] = Unbound AUC in Wistar Han rat at 1 mg/kg, po at 7 to 24 hrs by LC-MS/MS analysis; type: ADME, organism-based; settings: in vivo, time 7-24 hrs
# [4] = MRT in Wistar Han rat at 1 mg/kg, iv at 7 to 24 hrs by LC-MS/MS analysis; type: ADME, organism-based; settings: in vivo, time 7-24 hrs
# [5] = Volume of distribution at steady state in Wistar Han rat at 1 mg/kg, iv at 7 to 24 hrs by LC-MS/MS analysis; type: ADME, organism-based; settings: in vivo, time 7-24 hrs, read-out: Vdss
# [6] = Oral availability in Wistar Han rat at 1 mg/kg at 7 to 24 hrs by LC-MS/MS analysis; type: ADME, organism-based; settings: in vivo, time 7-24 hrs
# [7] = AUC in Wistar Han rat at 1 mg/kg, po at 7 to 24 hrs by LC-MS/MS analysis; type: ADME, organism-based; settings: in vivo, time 7-24 hrs
# [8] = Dissociation constant, pKa of compound; type: physicochemical
# [9] = Kinetic solubility of compound by CAD analysis; type: physicochemical; settings: read-out: Kinetic_solubility
# [10] = Unbound AUC in Wistar Han rat at 2 mg/kg, po at 7 to 24 hrs by LC-MS/MS analysis; type: ADME, organism-based; settings: in vivo, time 7-24 hrs
Papp (in vitro),chromatographic logD [1],Compound,other results
2.7 ×10⁻⁶ cm/s,,O=C(O)C[C@H](CN1CC[C@@H](CCc2ccc3c(n2)NCCC3)C1)c1cccc(N2CCOCC2)c1,
21 ×10⁻⁶ cm/s,3.4,CCOc1cccc(C(CC(=O)O)CN2CC(C(F)(F)CCc3ccc4c(n3)NCCC4)C2)c1 (racemic),
< 0.3 ×10⁻⁶ cm/s,,Cc1cc(C)n(-c2cccc([C@@H](CC(=O)O)CN3CC(CCCc4ccc5c(n4)NCCC5)C3)c2)n1,
20 ×10⁻⁶ cm/s,3,COc1cccc(C(CC(=O)O)CN2CC(C(F)(F)CCc3ccc4c(n3)NCCC4)C2)c1 (racemic),
10.4 ×10⁻⁶ cm/s,2.7,O=C(O)CC(CN1CC(C(F)(F)CCc2ccc3c(n2)NCCC3)C1)c1ccnc(OC2CC2)c1 (racemic),
23 ×10⁻⁶ cm/s,3.2,COc1cc(C(CC(=O)O)CN2CC(C(F)(F)CCc3ccc4c(n3)NCCC4)C2)ccc1F (racemic),Cmax [2]: 313 ng/mL; fAUC [3]: 212 ng·h/mL; MRT [4]: 3.8 h; Vd [5]: 2.4 L/kg; bioavailability [6]: 79%; AUC [7]: 1370 ng·h/mL
16.3 ×10⁻⁶ cm/s,3.1,COc1cc([C@H](CC(=O)O)CN2CC(C(F)(F)CCc3ccc4c(n3)NCCC4)C2)ccc1F,fAUC [3]: 135 ng·h/mL; MRT [4]: 3.1 h; Vd [5]: 4.6 L/kg; bioavailability [6]: 94%; AUC [7]: 881 ng·h/mL; pKa [8]: 4; solubility kinetic [9]: ≥ 159 µg/mL
7.4 ×10⁻⁶ cm/s,2.5,O=C(O)CC(CN1CC(C(F)(F)CCc2ccc3c(n2)NCCC3)C1)c1ccnc(C2CC2)c1 (racemic),
43 ×10⁻⁶ cm/s,3.7,O=C(O)CC(CN1CC(C(F)(F)CCc2ccc3c(n2)NCCC3)C1)c1cccc(C2CC2)c1 (racemic),
28 ×10⁻⁶ cm/s,3.6,COc1cc(C(CC(=O)O)CN2CC(C(F)(F)CCc3ccc4c(n3)NCCC4)C2)ccc1Cl (racemic),
3.2 ×10⁻⁶ cm/s,3,COCCOc1cccc([C@@H](CC(=O)O)CN2CC(C(F)(F)CCc3ccc4c(n3)NCCC4)C2)c1,
21 ×10⁻⁶ cm/s,3,O=C(O)CC(CN1CC(C(F)(F)CCc2ccc3c(n2)NCCC3)C1)c1ccccc1 (racemic),
25 ×10⁻⁶ cm/s,3.3,COc1ccc(F)c(C(CC(=O)O)CN2CC(C(F)(F)CCc3ccc4c(n3)NCCC4)C2)c1 (racemic),Cmax [2]: 739 ng/mL; fAUC [3]: 163 ng·h/mL; MRT [4]: 4.2 h; Vd [5]: 1.6 L/kg; bioavailability [6]: 91%; AUC [7]: 2460 ng·h/mL
15 ×10⁻⁶ cm/s,3,COc1cccc(C(CC(=O)O)CN2CC(C(F)(F)CCc3ccc4c(n3)NCCC4)C2)c1I (racemic),
< 1 ×10⁻⁶ cm/s,,Cc1cc(C)n(-c2cccc([C@H](CC(=O)O)CN3CC(CCCc4ccc5c(n4)NCCC5)C3)c2)n1,
8.9 ×10⁻⁶ cm/s,3.1,O=C(O)CC(CN1CC(C(F)(F)CCc2ccc3c(n2)NCCC3)C1)c1cccc(OC2CCOCC2)c1 (racemic),

Papp (in vitro),chromatographic logD [1],Compound,other results
16 ×10⁻⁶ cm/s,3,O=C(O)CC(CN1CC(C(F)(F)CCc2ccc3c(n2)NCCC3)C1)c1ccc2c(c1)OCC2 (racemic),
39 ×10⁻⁶ cm/s,3.5,O=C(O)CC(CN1CC(C(F)(F)CCc2ccc3c(n2)NCCC3)C1)c1cccc(OC2CC2)c1 (racemic),
19 ×10⁻⁶ cm/s,3.1,O=C(O)CC(CN1CC(C(F)(F)CCc2ccc3c(n2)NCCC3)C1)c1cccc2c1OCC2 (racemic),
< 0.3 ×10⁻⁶ cm/s,,O=C(O)C[C@H](CN1CC(CCc2ccc3c(n2)NCCC3)C1)c1cccc(N2CCOCC2)c1,
8.2 ×10⁻⁶ cm/s,2.8,O=C(O)CC(CN1CC(C(F)(F)CCc2ccc3c(n2)NCCC3)C1)c1cccc(O[C@@H]2CCOC2)c1 (mixture of isomers),
7.2 ×10⁻⁶ cm/s,2.4,COCCOc1cccc([C@H](CC(=O)O)CN2CC(SCCc3ccc4c(n3)NCCC4)C2)c1,pKa [8]: 4.3
13 ×10⁻⁶ cm/s,3.3,Cc1cc(C)n(-c2cccc(C(CC(=O)O)CN3CC(C(F)(F)CCc4ccc5c(n4)NCCC5)C3)c2)n1 (racemic),Cmax [2]: 12.4 ng/mL; fAUC [3]: 0.6 ng·h/mL; MRT [4]: 0.2 h; Vd [5]: 0.7 L/kg; bioavailability [6]: 3%; AUC [7]: 14 ng·h/mL
5.5 ×10⁻⁶ cm/s,2.7,O=C(O)CC(CN1CC(C(F)(F)CCc2ccc3c(n2)NCCC3)C1)c1cccc(N2CCOCC2)c1 (racemic),
< 0.3 ×10⁻⁶ cm/s,2,COCCOc1cccc(C(CC(=O)O)CN2CC(OCc3ccc4c(n3)NCCC4)C2)c1 (racemic),pKa [8]: 4
10.2 ×10⁻⁶ cm/s,2.7,COc1ncc(C(CC(=O)O)CN2CC(C(F)(F)CCc3ccc4c(n3)NCCC4)C2)cc1C (racemic),Cmax [2]: 496 ng/mL; fAUC [3]: 152 ng·h/mL; MRT [4]: 2.9 h; Vd [5]: 1.1 L/kg; bioavailability [6]: 57%; AUC [7]: 1510 ng·h/mL; solubility kinetic [9]: ≥ 118 µg/mL
6.5 ×10⁻⁶ cm/s,2.4,COCCOc1cccc([C@@H](CC(=O)O)CN2CC(SCCc3ccc4c(n3)NCCC4)C2)c1,
6.3 ×10⁻⁶ cm/s,2.9,O=C(O)CC(CN1CC(C(F)(F)CCc2ccc3c(n2)NCCC3)C1)c1cccc(O[C@H]2CCOC2)c1 (mixture of isomers),
8.8 ×10⁻⁶ cm/s,3,COCCOc1cccc([C@H](CC(=O)O)CN2CC(C(F)(F)CCc3ccc4c(n3)NCCC4)C2)c1,Cmax [2]: 20.4 ng/mL; fAUC [3]: 38 ng·h/mL; MRT [4]: 1.7 h; Vd [5]: 3 L/kg; bioavailability [6]: 17%; AUC [7]: 95 ng·h/mL; pKa [8]: 3.9
5.5 ×10⁻⁶ cm/s,2.9,COc1cc(C(CC(=O)O)CN2CC(C(F)(F)CCc3ccc4c(n3)NCCC4)C2)ccc1C#N (racemic),
14.6 ×10⁻⁶ cm/s,2.9,COCCOc1cccc([C@H](CC(=O)O)CN2CC[C@@](F)(CCc3ccc4c(n3)NCCC4)C2)c1,Cmax [2]: 530 ng/mL; MRT [4]: 3 h; Vd [5]: 3.6 L/kg; fAUC [10]: 280 ng·h/mL; bioavailability [6]: 93%; pKa [8]: 4.1; solubility kinetic [9]: ≥ 238 µg/mL

# — ChEMBL document CHEMBL6083250, “Core Modifications of GSK3335103 toward Orally Bioavailable αvβ6 Inhibitors with Improved Synthetic Tractability” (J Med Chem, 2024)
